# Laboratory results as given in patent US20100233229A1, “IN-VIVO INDWELLING DEVICE” (Terumo Kabushiki Kaisha, priority 2007, published 2010).
# Assay: ultra-micro hardness under load (HTL) of coating layer, JIS Z2255, dynamic ultra micro hardness tester
# Type: physicochemical
# Details: coating layer on SUS disc; 50 mg sirolimus, 50 mg PLGA, 10 mg (20% based on PLGA) of the triglyceride; about 30 μm
# Description: When the medium-chain fatty acid triglyceride is added to the coating layer (for example, the layer formed on at least a part of a surface of a stent main body and formed from the composition containing the biologically active agent, the biodegradable polymer, and the medium-chain fatty acid triglyceride) formed on a surface of the in-vivo indwelling device, for example, on a surface of a stent, flexibility can be imparted to the coating layer. In addition, as a method for quantitatively measuring the flexibility of a very thin layer such as the above-mentioned coating layer, measurement of ultra-micro hardness under load (also called “HTL,” “dynamic hardness” and “universal hardness”) by use of an ultra-micro hardness tester can be used. In this method, as described in JIS Z2255, hardness of a solid material is measured as a resistance to a triangular pyramid diamond indenter when the indenter is pressed against the surface of a specimen, and it is possible by the method to measure hardness in a very minute region of a solid material having a thickness of not less than 10 μm. In order that such a damage as cracking of the coating layer or exfoliation of the coating layer from the stent main body is mitigated or not generated when the stent is expanded, the ultra-micro hardness under load can be 15 or below, more preferably 12 or below, and particularly preferably 10 or below. The present inventors have made earnest search for a substance which causes the ultra-micro hardness under load of the coating layer to be, for example, 15 or below and which is high in safety, among a large number of additives. As a result of the search, they found exemplary medium-chain fatty acid triglycerides.
# The circular discs provided thereon with the respective coating layers were sterilized by electron beams, and ultra-micro hardness under load (HTL) of the coating layers was measured according to JIS Z2255 by use of a dynamic ultra micro hardness tester produced by Shimadzu Corporation. A lower value of HTL indicates a higher flexibility of the coating layer.
# The stent was crimped onto a balloon of a delivery catheter, and sterilized by electron beams. The ultra-micro hardness under load (HTL) of the coating layer after sterilization was measured according to JIS Z2255 by use of a dynamic ultra micro hardness tester produced by Shimadzu Corporation.
row,SMILES,ultra-micro hardness under load (HTL)
1,CCCCCC(=O)OCC(COC(=O)CCCCC)OC(=O)CCCCC [Tricaproin],15
2,CCCCCCCC(=O)OCC(COC(=O)CCCCCCC)OC(=O)CCCCCCC [Tricaprylin],10
3,CCCCCCCCCC(=O)OCC(COC(=O)CCCCCCCCC)OC(=O)CCCCCCCCC [Tricaprin],9
4,CCCC(=O)OCC(COC(=O)CCC)OC(=O)CCC [Tributyrin],19
5,CC(=O)OCC(COC(C)=O)OC(C)=O [Triacetin],20

# Results, then the compound that gave them:
row,ultra-micro hardness under load (HTL),SMILES
1,15,CCCCCCCCCCCC(=O)OCC(COC(=O)CCCCCCCCCCC)OC(=O)CCCCCCCCCCC [Trilaurin]
2,20,CCCCCCCCCCCCCC(=O)OCC(COC(=O)CCCCCCCCCCCCC)OC(=O)CCCCCCCCCCCCC [Trimyristin]
